Consider four molecules from US11033630B2, “Method and pharmaceutical composition for treatment of neurodegeneration” (priority 2016, dated 2021).

For data set [1] the following is noted: complex with Fe(III); cited from earlier work.
The conditions of data set [2]: complex with Cu(II); cited from earlier work.
For data set [3] the following is noted: complex with Zn(II); cited from earlier work.
For data set [4] the following is noted: complex with Ga(III); cited from earlier work.
Data set [5] in a line: Behavior of rats monitored after IP injection. Conditions: monitored for 90 min.
Procedure: (§1) In particular, male Sprague-Dawley (SD) rats (300 g average body weight, 3 animals per group) were injected IP with DFO (250, 500, or 1000 mg/kg body weight). For comparison, Zn-DFO solution in freshly prepared saline was injected IP (250, 500, or 1000 mg/kg body weight, which are equivalent to 883, 442, or 221 mg DFO/kg body weight, respectively).
(§2) The behavior of the rats was monitored for 90 min following the injection.
A short description of data set [6]: Blood-Brain Barrier (BBB) penetration: DFO concentration in rat brain after IP injection. The following applies: for DFO (mg/g organ) / DFO (mg/whole organ): rat brain, 90 min after IP injection.
Procedure: (§3) In this study, the ability of the Zn-DFO complex to infiltrate into the brain was examined. Rats were injected intraperitoneally (IP) with increasing amounts of DFO alone or Zn-DFO complex, and the concentration of DFO was measured in their brains, thus monitoring their infiltrability.
as §1
(§4) The behavior of the rats was monitored for 90 min following the injection. Then, the animals were euthanized using an injection of ketamine-xylazine, and their hearts, livers, left kidneys, and brains were excised and weighted. Brain samples (300 mg tissue) were homogenized in 3 ml Lysis buffer. Tissue homogenates were incubated at 110° C. for 5 min and centrifuged for 5 min at 14,500 relative centrifugal force (RCF). An equal volume of 40% trichloroacetic acid (TCA) solution was added, forming a solution containing 20% TCA, which was vortexed and centrifuged again. The supernatants were transferred into cuvettes, and DFO concentration was spectrophotometrically measured, after addition of 10 mM of ferric iron solution (as a weak complex of iron, ferric-nitrilo-tri-acetate, at pH=7.4), and scanning the range of λ=380-580 nm. The final concentration was calculated according to the Beer-Lambert law, using εDFO=2460 M^−1cm^−1; the total amount of DFO per gram tissue and per whole brain were calculated.
Data set [7] relates to streptozotocin (STZ)-induced model in C57BL/6 mice. As to the kind of experiment: Streptozotocin-induced model of Alzheimer disease. Type of data set: in vivo. The following applies: IP, Zn-DFO/Ga-DFO 2 and 6 mg/kg daily, Eu-DFO 4 mg/kg. As for the experimental part:
In this study, the therapeutic effect of metal-DFO complex on Alzheimer disease is tested, using the streptozotocin (STZ)-induced model in mice.
The disease is induced in 10 weeks old male C57BL/6 mice. The animals are placed into a stereotaxic frame for mice with nose and ear bars. STZ (3 mg/kg) or citrate buffer (for the control group) is injected bilaterally into the lateral ventricles at the following coordinates: AP—0.5 mm; ML ±1.1 mm; DV—2.8 mm relative to the bregma in a total volume of 1.5 μl to hemisphere. The injections are repeated 2 days after the first STZ injection (1.5 mg/kg). In order to confirm that the stereotaxic coordinates used throughout the study are suitable for STZ injection into lateral ventricles, FITC-labeled latex microspheres are injected into lateral ventricles and the presence of fluorescence in the surrounding brain tissue is examined 24 h after injection. Mice are treated with Zn-DFO or Ga-DFO daily, by IP injections of 2 mg/kg and 6 mg/kg, and with Eu-DFO as IP injection, 4 mg/kg. During 21 days of the experiment the mice undergo maze tests and novel object recognition (NOR) tests every 7 days. Clinical signs including general body condition and dehydration are monitored daily after the surgery. Every 7 days a representative number of mice is taken from each group and euthanized for Alzheimer's disease markers (amyloid-β protein, neurofilament expression, phosphorylation of Tau protein, synapsin expression) biochemical and histochemical evaluation (Ravelli et al., 2016).

For data set [8], the system named is MOG35-55-induced EAE in C57BL/6 mice. The experiment in a line: Experimental Autoimmune Encephalomyelitis (EAE), model for multiple sclerosis. Type of data set: in vivo. As to the method:
In this study, the therapeutic effect of metal-DFO complex on multiple sclerosis (MS) is tested, using the Experimental Autoimmune Encephalomyelitis (EAE) in mice.
EAE is induced in 8-week-old female C57BL/6 mice by subcutaneous (SC) injection of 125 μg of myelin oligodendrocyte glycoprotein 35-55 peptide (MOG35-55) emulsified in complete Freund's adjuvant (CFA) containing 5 mg/ml heat-killed Mycobacterium tuberculosis into the left para-lumbar region. Immediately thereafter, and again at 48 h, the mice are inoculated intraperitoneal (IP) with 0.5 ml of pertussis toxin (400 ng). Seven days later, the mice are further challenged with an additional injection of MOG35-55 peptide in CFA injected into the right para-lumbar region. Mice are treated with Zn-DFO or Ga-DFO daily as IP injections, 2 mg/kg and 6 mg/kg.
The severity of the disease is assessed using the scale shown in Table 2 (Bittner et al., 2014).

Data set [9] concerns MPTP model in C57BL/6 mice. As to the kind of experiment: MPTP mouse model of Parkinson's disease. Type of data set: in vivo. Conditions: 2 mg/kg daily IP. As to the method: In this study, the therapeutic effect of metal-DFO complex on Parkinson's disease is tested, using the 1-methyl-4-phenyl-1,2,3,6-tetrahydropyridine (MPTP) model in mice.
Parkinson's disease is induced in 10 weeks old male C57BL/6 mice by four continuous IP injections of 20 mg/kg of MPTP, every 2 hours and during 8 hours, for 5 days (Jackson-Lewis and Przedborski, 2007). The animals are treated with Zn-DFO or Ga-DFO by daily IP injections, 2 mg/kg and 6 mg/kg, 30 min prior to the first exposure to MPTP. On day 8 the animals are euthanized. Immediately after the euthanasia, the striata are dissected out to perform biochemical and histological assessment of the damage to dopaminergic innervation.

The test system of data set [10] is contusion spinal cord injury model in C57BL/6 mice. The experiment in a line: Contusion spinal cord injury model. Type of data set: in vivo. Conditions: 3 mg/kg IP. As for the experimental part:
In this study, the therapeutic effect of metal-DFO complex on spinal cord injury was tested, using a contusion spinal cord injury model in C57BL/6 mice.
A contusion spinal cord injury model was employed using Infinite Horizon spinal cord impactor. The injury was performed at force setting of 70 kilodyne, for 100 ms (milisecond) on exposed T12 vertebra of the mouse (8 weeks old male), anesthetized with a ketamine-xylazine mixture (85:15), and immobilized. Immediately before the impact, the mice were injected with buprenorphine (0.1 mg/ml/kg body weight) as an analgesic.
Twenty one mice, after contusion, were divided into three groups (n=7), according to their treatment as following (Basso et al., 2006): Group 1—control untreated; Group 2—treated with saline (IP injections of 100 μl on Days 1, 2, 3, 4, 6, 8, 10, 12, 14, 17, 20, 23, 27, 31, 35, 39, and 42); Group 3—treated with Zn-DFO complex, 3 mg/kg body weight in saline (IP injections of 100 μl according to the same regimen as Group 2). Both treated groups (saline and Zn-DFO complex) received the first treatment 10 min following the Impactor-induced trauma.
The post-traumatic recovery of mice locomotion with or without treatment was assessed on a daily basis for the next 43 days, using open field Basso mouse scale (BMS) score as following: 0—no ankle movement; 1—slight ankle movement; 2—extensive ankle movement; 3—plantar placing of the paw with or without weight support, or occasional, frequent or consistent dorsal stepping but no plantar stepping; 4—occasional plantar stepping; 5—frequent or consistent plantar stepping, no coordination, or frequent or consistent plantar stepping, some coordination, paws rotated at initial contact and lift off (R/R); 6—frequent or consistent plantar stepping, some coordination, paws parallel at initial contact (P/R, P/P), or frequent or consistent plantar stepping, mostly coordinated, paws rotated at initial contact and lift off (R/R); 7—frequent or consistent plantar stepping, mostly coordinated, paws parallel at initial contact and rotated at lift off (P/R), or frequent or consistent plantar stepping, mostly coordinated, paws parallel at initial contact and lift off (P/P), and severe trunk instability; 8—frequent or consistent plantar stepping, mostly coordinated, paws parallel at initial contact and lift off (P/P), and mild trunk instability, or frequent or consistent plantar stepping, mostly coordinated, paws parallel at initial contact and lift off (P/P), and normal trunk stability and tail down or up & down; and 9—frequent or consistent plantar stepping, mostly coordinated, paws parallel at initial contact and lift off (P/P), and normal trunk stability and tail always up (P—parallel; R—rotated). The values were normalized considering the basal score on Day 0 as 100%.
On Day 43, the animals were euthanized, and their spinal cords were excised and stored in paraformaldehyde (PFA) 4% for histological analysis. Epon blocks were prepared, and the histological analysis was performed after staining with methylene blue.

For the next data set, the system named is H9C2 cardiomyocytes. The experiment in a line: Penetration of cellular membranes in tissue culture model. Type of data set: in vitro ADME. Conditions: data not shown. The text has this:
It is postulated that some of the useful effects exerted by DFO in inhibiting ROS formation are achieved through its actions as a chelating agent (chelant, chelator, or sequestering agent), capable of forming soluble complexes, i.e., chelates, with certain metal ions and consequently inactivating said metal ions such that they cannot normally react with other elements or ions. Such chelates often have chemical and biological properties that are markedly different from those of either the chelator or metal ion, alone. For example, whereas DFO is a molecule having a noodle-like structure that can sparingly infiltrate into cells, metal-chelates formed by said molecule, e.g., the zinc-, gallium- or iron-chelates, assume a globular structure capable of infiltrating into cells.

For data set [11] the following is noted: rat, in vivo, ip.
Procedure: as §3, §1, §4
For data set [12] the following is noted: rat, in vivo, ip. This is another data set of the same source.
Procedure: as §1, §2

Read-outs that look alike come from different tables or passages of the source. Bounds are passed on as bounds.

As to `CC(=O)N(O)CCCCCNC(=O)CCC(=O)N(O)CCCCCNC(=O)CCC(=O)N(O)CCCCCN` [DFO, N′-[5-(Acetyl-hydroxy-amino)pentyl]-N-[5-[3-(5-aminopentyl-hydroxy-carbamoyl)propanoylamino]pentyl]-N-hydroxy-butane diamide], the “relative stability constant of DFO complex” value was 10^31 in data set [1], 10^14 in [2], 10^11 in data set [3] and 10^28 in [4]. Also, the “changes in rats' behavior” value in [5] (IP 250 mg/kg), in [5] (IP 500 mg/kg) and in data set [5] (IP 1000 mg/kg) was “no changes in rats' behavior was observed” each time. The “DFO (mg/g organ)” value is less than 0.005 mg/g organ in data set [6] (250 mg/kg), less than 0.005 mg/g organ in [6] (500 mg/kg) and 0.008 ± 0.004 mg/g organ in [6] (1000 mg/kg). The “DFO (mg/whole organ)” value in data set [6] (250 mg/kg) is recorded as less than 0.005 mg/whole organ; in data set [6] (500 mg/kg), less than 0.005 mg/whole organ; in [6] (1000 mg/kg), 0.019 ± 0.008 mg/whole organ. The “DFO infiltrated the brain (%)” value in data set [6] (rat, IP, 250 mg/kg) is less than 0.0015%; in [6] (rat, IP, 500 mg/kg) it was less than 0.0015%; in data set [6] (rat, IP, 1000 mg/kg) it was 0.002%. Moreover, the “fraction of DFO that had infiltrated into the brain” value in data set [6] (rat, IP, over the 3 doses (250, 500 and 1000 mg/kg)) was not above 0.002%.
For `CC(=O)N(O)CCCCCNC(=O)CCC(=O)N(O)CCCCCNC(=O)CCC(=O)N(O)CCCCCN.[Eu+3]` [Eu-DFO], in data set [7], the “diminishing expression of synapsin” value was “Only a minute effect”; the “expression of Aβ protein and phosphorylation of Tau protein in the hippocampus” value (shortened to “expression … in the hippocampus”) was “slightly better than Ga-DFO”.
As for `CC(=O)N([O-])CCCCCNC(=O)CCC(=O)N([O-])CCCCCNC(=O)CCC(=O)N([O-])CCCCCN.[Ga+3]` [Ga-DFO, gallium-desferrioxamine B], the “onset of the disease” value in data set [8] (2 mg/kg daily IP) is 14 days. The “onset of the disease” value in [8] (6 mg/kg daily IP) is 15 days. For the same molecule, the “number of TH-positive neurons within the substantia nigra (% of control)” value in [9] is on record as 65%. Also, in data set [7], the “diminishing expression of synapsin” value is recorded as “attenuate this process dose-dependently”; the “expression … in the hippocampus” value was “inhibited”; the “impairment of maze and NOR test outcomes” value is “(largely) prevent this impairment in a dose-dependent manner”.
Regarding Zinc-desferrioxamine B [Zn-DFO], in data set [10] (Day 13), the BMS score was 5.1 and the “normalized BMS score (% of initial scoring, Day 0)” value was found to be 347%. Besides, in [10] (Day 29), the “normalized BMS score (% of initial scoring), plateau” value was found to be 389%. For the same molecule, the “BMS score, plateau” value in data set [10] (Day 29, scale 0-9) is 5.7. Also, in data set [10] (spinal cord histology, Day 43), the “density of axons and axonal myelin sheath in white matter” value is “restoring the density of axons and axonal myelin sheath”; the “white matter area (fraction of the total area)” value was determined as 50.8±3.3%. Also, the body weight gain entry in [10] (vs non-treated or saline-treated animals) is “gained weight better than the non-treated or saline-treated animals”. Besides, in the data set with H9C2 cardiomyocytes, the “ability to infiltrate into the cells relative to DFO alone” value is “more than threefold higher”. Also, the “onset of the disease” value in data set [8] (2 mg/kg daily IP) was determined as 14 days. The “onset of the disease” value in [8] (6 mg/kg daily IP) lay in the range of 15 to 16 days. Further, the peak clinical score entry in data set [8] (6 mg/kg daily IP, Day 19, Table 2 scale) is “less than 3”. Further, the “number of TH-positive neurons within the substantia nigra (% of control)” value in data set [9] turned out to be 65%. Moreover, in [7], the “diminishing expression of synapsin” value is reported as “attenuate this process dose-dependently”; the “expression … in the hippocampus” value is listed as “inhibited”; the “impairment of maze and NOR test outcomes” value is “(largely) prevent this impairment in a dose-dependent manner”. For the same molecule, the “infiltrability into the brain relative to DFO alone” value in [11] is “at least 8.6 fold”. In addition, in data set [11] (250 mg/kg), the “DFO (mg/g organ)” value was determined as 0.017 ± 0.002 mg/g organ, the “DFO (mg/whole organ)” value was determined as 0.032 ± 0.004 mg/whole organ and the “DFO infiltrated the brain (%)” value is recorded as 0.014%. Further, in data set [11] (500 mg/kg), the “DFO (mg/g organ)” value is on record as 0.031 ± 0.001 mg/g organ, the “DFO (mg/whole organ)” value amounted to 0.054 ± 0.002 mg/whole organ and the “DFO infiltrated the brain (%)” value is recorded as 0.012%. In addition, in data set [11] (1000 mg/kg), the “DFO (mg/g organ)” value was 0.072 ± 0.011 mg/g organ, the “DFO (mg/whole organ)” value stood at 0.133 ± 0.010 mg/whole organ and the “DFO infiltrated the brain (%)” value came out at 0.014%. The “changes in rats' behavior” value in data set [12] (250 mg/kg) is recorded as “no changes in the rats' behavior could be identified”. Also, the “changes in rats' behavior” value in [12] (500 mg/kg) was “no changes in the rats' behavior could be identified”. Moreover, in [12] (1000 mg/kg), the “changes in rats' behavior” value was “passive and apathetic”.
